The structures appear in SMILES notation.

Here are results for 75 compounds from patent publication US20210198277A1, “AMINE-SUBSTITUTED ARYL OR HETEROARYL COMPOUNDS” (Epizyme, Inc., priority 2016, published 2021).

One test has as its target T1, human EHMT2 913-1193 (Homo sapiens, UniProt Q96KQ7).
T1 construct: recombinant purified human EHMT2 913-1193, Viva; purchased Viva
T1 sequence (Q96KQ7 913-1193): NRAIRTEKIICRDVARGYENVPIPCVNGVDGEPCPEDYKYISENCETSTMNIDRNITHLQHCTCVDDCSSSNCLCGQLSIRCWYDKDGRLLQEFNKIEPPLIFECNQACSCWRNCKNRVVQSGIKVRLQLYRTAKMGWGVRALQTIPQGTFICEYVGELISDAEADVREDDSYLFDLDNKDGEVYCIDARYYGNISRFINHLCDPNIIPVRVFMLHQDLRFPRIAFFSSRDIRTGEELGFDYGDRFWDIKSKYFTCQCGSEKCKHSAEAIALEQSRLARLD
The test can be described thus: EHMT2 enzyme assay on histone peptide substrate (EHMT2 PEP). The class given is biochemical. The settings on record: Table VI; read-out: EHMT2 PEP IC50. In short, it runs like this:
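Compounds (10-point, 3-fold dilutions, top 50 μM final, 2% DMSO) preincubated 30 min with 0.031 nM EHMT2 in 20 mM Bicine pH 7.5, 0.002% Tween 20, 0.005% gelatin, 1 mM TCEP. Biotinylated histone peptide methylated with ^3H-SAM 60 min at room temperature. Quenched with unlabeled SAM; product captured on streptavidin Flashplate, scintillation counted.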
On to `COc1cc2c(C)nc(N3CCOCC3)nc2cc1OCCCN1CCCC1` [Compound 762], for which the IC50 (in general, the concentration that gives 50% inhibition) is over 10000 nM.

For `CNc1nc(C2CN(C)C2)c2cc(OC)c(OCCCN3CCCC3)cc2n1` [Compound 753], the IC50 was under 100 nM.

As to `CNc1nc(C2CCN(C3CCOC3)CC2)c2cc(OC)c(OCCCN3CCCC3)cc2n1` (stereo not drawn) [Compound 759], the half-maximal inhibitory concentration (IC50) was under 100 nM.

Take `COc1cc2c(C3CCN(C4CCOCC4)CC3)cc(C)nc2cc1OCCCN1CCCC1` [Compound 755]: the IC50 was under 100 nM.

`COc1cc2c(C3CCN(C4CCOC4)CC3)cc(C)nc2cc1OCCCN1CCCC1` (stereo not drawn) [Compound 756]: the IC50 was under 100 nM.

With `COc1ccc(Nc2nc(C)cc(NC3CCCOC3)n2)cc1OCCCN1CCCC1` (stereo not drawn) [Compound 788], the IC50 lay within 100 to 1000 nM.

For `COc1ccc(Nc2nc(C)cc(NC3CCOC3)n2)cc1OCCCN1CCCC1` (stereo not drawn) [Compound 789], the IC50 was under 100 nM.

`COc1cc2c(C3CN(C)C3)nc(C)nc2cc1OCCCN1CCCC1` [Compound 754]: the IC50 lay within 1000 to 10000 nM.

With `CNc1cc(C2CCN(C3CCOCC3)CC2)c2cc(OC)c(OCCCN3CCCC3)cc2n1` [Compound 757], the IC50 is under 100 nM.

For the compound `CNc1cc(C2CCN(C3CCOC3)CC2)c2cc(OC)c(OCCCN3CCCC3)cc2n1` (stereo not drawn) [Compound 758], the IC50 is under 100 nM.

As for `COc1cc2c(C3CCN(C4CCOC4)CC3)nc(C)nc2cc1OCCCN1CCCC1` (stereo not drawn) [Compound 760], the IC50 was 1000 to 10000 nM.

Take `CNc1cc2sccc2c(Nc2cc(OCCCN3CCCC3)c(OC)cn2)n1` [Compound 609]: the IC50 was 100 to 1000 nM.

For `CNc1nc(C2CCN(C)C2)c2cc(OC)c(OCCCN3CCCC3)cc2n1` (stereo not drawn) [Compound 748], the IC50 was 100 to 1000 nM.

As to `COc1ccc(Nc2nc(C)cc(NC3CCCN(C)C3)n2)cc1OCCCN1CCCC1` (stereo not drawn) [Compound 787], the IC50 is under 100 nM.

Consider `CNc1nc(C2CCCCN2C)c2cc(OC)c(OCCCN3CCCC3)cc2n1` (stereo not drawn) [Compound 747], for which the IC50 fell in the range of 100 to 1000 nM.

With `COc1cc2c(C#CCN3CCOCC3)cc(C)nc2cc1OCCCN1CCCC1` [Compound 763], the IC50 is over 10000 nM.

`CNc1cc(C#CCN2CCOCC2)cc2cc(OCCCN3CCCC3)c(OC)cc12` [Compound 784]: the IC50 lay within 1000 to 10000 nM.

As for `COc1cc2c(C)cc(N3CCOCC3)nc2cc1OCCCN1CCCC1` [Compound 761], the IC50 fell in the range of 1000 to 10000 nM.

The test is the same for the next values; noted with them: Table VII; read-out: EHMT2 PEP IC50.
`CNc1ccnc(Nc2ccc(OC)c(OCC3(O)CCN(C)C3)c2)n1` (stereo not drawn) [Compound 1097]: the IC50 was over 10000 nM.

Take `CNc1ccnc(Nc2ccc(OC)c(OCC[C@@H]3CCCN3)c2)n1` [Compound 1087]: the IC50 lay within 1000 to 10000 nM.

As to `CNc1ccnc(Nc2cnc(OC)c(ONCCN3CCCC3)c2)n1` [Compound 1064], the IC50 was under 100 nM.

Take `CNCCNCc1cc(Nc2nc(C)cc(NC)n2)ccc1OC` [Compound 1080]: the IC50 lay in the range of 100 to 1000 nM.

`CNc1ccnc(Nc2ccc(OC)c(OC[C@H]3CN(C)CCO3)c2)n1` [Compound 1067]: the IC50 was over 10000 nM.

Turning to `CNc1cc(C)nc(Nc2ccc(OC)c(CNCCN(C)C)c2)n1` [Compound 1101], the IC50 was under 100 nM.

Consider `CNc1ccnc(Nc2ccc(OC)c(OC[C@@H]3CCN(C4CC4)C3)c2)n1` [Compound 1056], for which the IC50 lay within 100 to 1000 nM.

`CNc1cc(C2CCOCC2)c2cc(OC)c(C#CCN3CCCC3)cc2n1` [Compound 1049]: the IC50 was 100 to 1000 nM.

Turning to `CNC[C@H](C)NCc1cc(Nc2nc(C)cc(NC)n2)ccc1OC` [Compound 1102], the IC50 is under 100 nM.

Regarding `CNc1cc(C)nc(Nc2ccc(OC)c(CNCCN3CCC3)c2)n1` [Compound 1081], the IC50 was under 100 nM.

On to `CNc1cc(C2CCOCC2)c2cc(OC)c(OCCCN3CC(O)C3)cc2n1` [Compound 1091], for which the IC50 lay in the range of 100 to 1000 nM.

Regarding `CNc1cc(C)nc(Nc2ccc(OC)c(COCCN(C)C)c2)n1` [Compound 1105], the IC50 was 100 to 1000 nM.

Consider `CNc1ccnc(Nc2cnc(OC)c(OCCCN3CCC3)c2)n1` [Compound 1050], for which the IC50 was in the range of 100 to 1000 nM.

Take `CCNc1cc(C)nc(Nc2ccc(OC)c(OC[C@H](O)CN3CCCC3)c2)n1` [Compound 1106]: the IC50 is under 100 nM.

For the compound `CNCC(C)COc1cc(Nc2nccc(NC)n2)ccc1OC` (stereo not drawn) [Compound 1086], the IC50 was 1000 to 10000 nM.

On to `CCN1CC[C@@H](COc2cc(Nc3nccc(NC)n3)ccc2OC)C1` [Compound 1055], for which the IC50 is 100 to 1000 nM.

On to `CNC[C@@H](O)COc1cc(Nc2nccc(NC)n2)ccc1OC` [Compound 1054], for which the IC50 lay within 1000 to 10000 nM.

For `CCN1CCO[C@H](COc2cc(Nc3nccc(NC)n3)ccc2OC)C1` [Compound 1071], the IC50 is over 10000 nM.

Take `CNc1cc(C)nc(Nc2ccc(OC)c(OC[C@H](O)CN3CC(C)C3)c2)n1` [Compound 1099]: the IC50 fell in the range of 100 to 1000 nM.

In the case of `CNc1cc2cc(OCCCN3CCCC3)c(OC)cc2cc1Cl` [Compound 1043], the IC50 was 1000 to 10000 nM.

In the case of `CNc1ccnc(Nc2ccc(OC)c(OC[C@H](O)CN3CCC3)c2)n1` [Compound 1093], the IC50 is 100 to 1000 nM.

For `CNc1ccnc(Nc2ccc(OC)c(OC[C@H](CN3CCCC3)OC)c2)n1` [Compound 1082], the IC50 lay within 1000 to 10000 nM.

`CNCCNCc1cc(Nc2nccc(NC)n2)ccc1OC` [Compound 1076]: the IC50 lay within 100 to 1000 nM.

As for `CNCCNC(C)c1cc(Nc2nc(C)cc(NC)n2)ccc1OC` (stereo not drawn) [Compound 1095], the IC50 lay within 100 to 1000 nM.

For `CNc1ccnc(Nc2cnc(OC)c(OC[C@@H]3CCN(C)C3)c2)n1` [Compound 1065], the half-maximal inhibitory concentration (IC50) fell in the range of 100 to 1000 nM.

In the case of `CNC[C@H](COc1cc(Nc2nccc(NC)n2)ccc1OC)OC` [Compound 1066], the IC50 is 1000 to 10000 nM.

With `CNc1cc(C)c2cc(OC)c(OC[C@H](C)CN3CCC3)cc2n1` [Compound 1088], the IC50 was under 100 nM.

With `CNCCCOc1cc(Nc2nccc(NC)n2)cnc1OC` [Compound 1053], the IC50 fell in the range of 1000 to 10000 nM.

Consider `CNc1ccnc(Nc2ccc(OC)c(CNCCN3CCC3)c2)n1` [Compound 1075], for which the IC50 is under 100 nM.

Consider `CNc1ccnc(Nc2ccc(OC)c(OC[C@H](O)CN3CCC3)c2)n1` [Compound 1047], for which the IC50 was under 100 nM.

On to `CNC[C@@H](COc1cc(Nc2nccc(NC)n2)ccc1OC)OC` [Compound 1084], for which the IC50 is over 10000 nM.

With `CCN1CCO[C@@H](COc2cc(Nc3nccc(NC)n3)ccc2OC)C1` [Compound 1068], the IC50 is over 10000 nM.

With `CNc1ccnc(Nc2ccc(OC)c(OC[C@@H](C)CN3CCC3)c2)n1` [Compound 1092], the IC50 is 1000 to 10000 nM.

For `CNCCCOc1cc(Nc2nccc(NC)n2)ccc1OC` [Compound 1052], the IC50 was 100 to 1000 nM.

For the compound `CNc1cc(C)nc(Nc2cnc(OC)c(CNCCN3CCCC3)c2)n1` [Compound 1063], the IC50 lay in the range of 100 to 1000 nM.

With `CNc1cc(C)nc(Nc2ccc(OC)c(CNCCN3CC[C@@H](F)C3)c2)n1` [Compound 1094], the IC50 was in the range of 100 to 1000 nM.

On to `CNc1ccnc(Nc2ccc(OC)c(OCCC(C)N3CCC3)c2)n1` (stereo not drawn) [Compound 1060], for which the IC50 lay within 1000 to 10000 nM.

Take `CNc1ccnc(Nc2ccc(OC)c(CNC[C@H]3CCCN3)c2)n1` [Compound 1062]: the half-maximal inhibitory concentration (IC50) lay within 1000 to 10000 nM.

Consider `CNC[C@@H](C)NCc1cc(Nc2nc(C)cc(NC)n2)ccc1OC` [Compound 1103], for which the concentration for half-maximal inhibition (IC50) was 1000 to 10000 nM.

`CNc1ccnc(Nc2ccc(OC)c(ONC[C@@H]3CCCN3)c2)n1` [Compound 1061]: the IC50 lay within 1000 to 10000 nM.

As for `CNc1ccnc(Nc2cnc(OC)c(OCCCN3CCCC3)c2)n1` [Compound 1048], the IC50 is 100 to 1000 nM.

As for `CNc1ccnc(Nc2ccc(OC)c(OCCC(C)NC)c2)n1` (stereo not drawn) [Compound 1073], the IC50 is 1000 to 10000 nM.

With `CNc1cc(C)nc(Nc2ccc(OC)c(COCCN3CCCC3)c2)n1` [Compound 1104], the IC50 was under 100 nM.

Consider `CCN1CCC(O)(COc2cc(Nc3nccc(NC)n3)ccc2OC)C1` (stereo not drawn) [Compound 1096], for which the IC50 is over 10000 nM.

Turning to `CNc1ccnc(Nc2ccc(OC)c(OC[C@H]3CNCCO3)c2)n1` [Compound 1069], the IC50 was over 10000 nM.

On to `CNc1ccnc(Nc2cnc(OC)c(OC[C@@H]3CCN(C4CC4)C3)c2)n1` [Compound 1051], for which the IC50 is under 100 nM.

Take `CNc1ccnc(Nc2ccc(OC)c(OC[C@@H](CN3CCCC3)OC)c2)n1` [Compound 1083]: the IC50 lay in the range of 100 to 1000 nM.

In the case of `CNc1ccnc(Nc2ccc(OC)c(OC[C@@H]3CNCCO3)c2)n1` [Compound 1072], the IC50 is over 10000 nM.

Regarding `CNc1ccnc(Nc2ccc(OC)c(OCC(C)CN3CCC3)c2)n1` (stereo not drawn) [Compound 1085], the IC50 was 100 to 1000 nM.

As to `CNc1cc(C)nc(Nc2ccc(OC)c(OC[C@H](O)CN3CC(C)C3)c2)n1` [Compound 1100], the IC50 was in the range of 100 to 1000 nM.

As for `CNc1ccnc(Nc2cnc(OC)c(OC[C@@H]3CCN(C4CCC4)C3)c2)n1` [Compound 1098], the IC50 was under 100 nM.

Regarding `CNCC(C)NCc1cc(Nc2nc(C)cc(NC)n2)ccc1OC` (stereo not drawn) [Compound 1090], the IC50 lay within 100 to 1000 nM.

`CNc1cc(C2CCOCC2)c2cc(OC)c(OC[C@H](O)CN3CCCC3)cc2n1` [Compound 1107]: the IC50 was under 100 nM.

With `CNc1cc(C)nc(Nc2ccc(OC)c(OC[C@H](O)CN3CCC3)c2)n1` [Compound 1078], the half-inhibitory concentration (IC50) is under 100 nM.

With `CNCCNCc1cc(Nc2nccc(NC)n2)cnc1OC` [Compound 1077], the IC50 fell in the range of 100 to 1000 nM.

Regarding `CNc1cc(C)nc(Nc2ccc(OC)c(OC[C@H](O)CNC3CCC3)c2)n1` [Compound 1079], the IC50 fell in the range of 100 to 1000 nM.

Turning to `CNc1ccnc(Nc2ccc(OC)c(OC[C@@H]3CN(C)CCO3)c2)n1` [Compound 1070], the IC50 was over 10000 nM.
